Data taken from ChEMBL document CHEMBL1130818, “High affinity, selective neurokinin 2 and neurokinin 3 receptor antagonists from a common structural template” (Bioorg Med Chem Lett, 1998).

Legend:
Substance-P receptor = Substance-P receptor (Homo sapiens, UniProt P25103); assay: Compound was evaluated for affinity towards human Neurokinin NK1 receptor
Neuromedin-K receptor = biological target: T1, Neuromedin-K receptor (Homo sapiens, UniProt P29371); assay: Compound was evaluated for affinity towards human Neurokinin NK3 receptor
T1 sequence (P29371 whole entry): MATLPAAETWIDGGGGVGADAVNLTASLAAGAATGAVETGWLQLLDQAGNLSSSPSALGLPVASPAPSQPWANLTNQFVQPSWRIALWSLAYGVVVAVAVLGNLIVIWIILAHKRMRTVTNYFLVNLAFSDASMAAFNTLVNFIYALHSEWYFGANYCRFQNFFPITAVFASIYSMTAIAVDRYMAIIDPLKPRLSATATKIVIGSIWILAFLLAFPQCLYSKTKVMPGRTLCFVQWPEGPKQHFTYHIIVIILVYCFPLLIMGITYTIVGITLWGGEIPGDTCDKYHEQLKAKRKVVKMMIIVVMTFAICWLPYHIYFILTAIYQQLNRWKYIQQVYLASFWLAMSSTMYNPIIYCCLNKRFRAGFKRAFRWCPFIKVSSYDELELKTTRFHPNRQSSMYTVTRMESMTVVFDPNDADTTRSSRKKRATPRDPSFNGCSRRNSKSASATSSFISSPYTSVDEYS

Substance-K receptor = biological target: T2, Substance-K receptor (Homo sapiens, UniProt P21452); assay: Compound was evaluated for affinity towards human Neurokinin NK2 receptor
T2 sequence (P21452 whole entry): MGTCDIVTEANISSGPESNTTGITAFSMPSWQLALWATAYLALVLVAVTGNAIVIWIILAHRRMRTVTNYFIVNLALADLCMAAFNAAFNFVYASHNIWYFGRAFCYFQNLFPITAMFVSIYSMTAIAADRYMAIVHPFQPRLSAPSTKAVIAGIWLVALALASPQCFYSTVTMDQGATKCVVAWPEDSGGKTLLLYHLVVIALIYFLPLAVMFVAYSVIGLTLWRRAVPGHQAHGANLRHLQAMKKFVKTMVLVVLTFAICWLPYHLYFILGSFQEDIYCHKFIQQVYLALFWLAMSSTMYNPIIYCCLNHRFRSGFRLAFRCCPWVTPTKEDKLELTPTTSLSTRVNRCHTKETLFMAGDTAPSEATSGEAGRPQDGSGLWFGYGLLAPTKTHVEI

Substance-P receptor, sequence (P25103 whole entry): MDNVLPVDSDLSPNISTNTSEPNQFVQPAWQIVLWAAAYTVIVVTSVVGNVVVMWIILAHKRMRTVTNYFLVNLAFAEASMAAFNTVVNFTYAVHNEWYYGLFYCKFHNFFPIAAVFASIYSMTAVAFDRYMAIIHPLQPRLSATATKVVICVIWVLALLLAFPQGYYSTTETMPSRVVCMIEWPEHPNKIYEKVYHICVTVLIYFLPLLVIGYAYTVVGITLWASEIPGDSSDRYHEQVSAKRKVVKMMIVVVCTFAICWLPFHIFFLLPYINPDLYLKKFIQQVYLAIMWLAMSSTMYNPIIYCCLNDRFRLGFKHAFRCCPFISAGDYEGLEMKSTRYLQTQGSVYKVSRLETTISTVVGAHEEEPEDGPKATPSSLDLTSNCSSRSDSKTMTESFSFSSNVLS

IC50 (Substance-P receptor) | IC50 (Neuromedin-K receptor) | IC50 (Substance-K receptor) | Structure (SMILES)
497 nM | 1.2 nM | 177 nM | CS(=O)(=O)N1CC2(CCN(CCCC3(c4ccc(Cl)c(Cl)c4)CCCN(C(=O)c4ccccc4)C3)CC2)c2ccccc21 (configuration not stated)
743 nM | 539 nM | 6.4 nM | O=C1CCC(CCCN2CCC(n3c(=O)[nH]c4ccccc43)CC2)(c2ccc(Cl)c(Cl)c2)CN1Cc1ccccc1 (configuration not stated)
892 nM | 127 nM | 2.5 nM | O=C1CCC(CCCN2CCC3(CC2)CN(c2ccccc2)NC3=O)(c2ccc(Cl)c(Cl)c2)CN1Cc1ccccc1 (configuration not stated)
379 nM | 7.9 nM | 348 nM | O=C(c1ccccc1)N1CCCC(CCCN2CCC(n3c(=O)[nH]c4ccccc43)CC2)(c2ccc(Cl)c(Cl)c2)C1 (configuration not stated)
763 nM | 25 nM | 2.2 nM | CS(=O)(=O)N1CC2(CCN(CCCC3(c4ccc(Cl)c(Cl)c4)CCC(=O)N(Cc4ccccc4)C3)CC2)c2ccccc21 (configuration not stated)
108 nM | 6.8 nM | 50 nM | O=C(c1ccccc1)N1CCCC(CCCN2CCC3(CC2)CN(c2ccccc2)NC3=O)(c2ccc(Cl)c(Cl)c2)C1 (configuration not stated)
272 nM | 2.6 nM | 204 nM | O=C(c1ccccc1)N1CCCC(CCCN2CCC3(CCc4ccccc43)CC2)(c2ccc(Cl)c(Cl)c2)C1 (configuration not stated)

Structure (SMILES) | IC50 (Substance-P receptor) | IC50 (Neuromedin-K receptor) | IC50 (Substance-K receptor)
CC(=O)C1(c2ccccc2)CCN(CCCC2(c3ccc(Cl)c(Cl)c3)CCCN(C(=O)c3ccccc3)C2)CC1 (configuration not stated) | 460 nM | 1.5 nM | 389 nM
CC(=O)C1(c2ccccc2)CCN(CCCC2(c3ccc(Cl)c(Cl)c3)CCC(=O)N(Cc3ccccc3)C2)CC1 (configuration not stated) | 1030 nM | 19 nM | 3.9 nM
